In patent publication US10633429B2, “Human antibody κ type light chain complex-containing composition and method for producing same” (JAPAN SCIENCE AND TECHNOLOGY AGENCY, priority 2013, dated 2020):

Assays:
Format in all cases: cell-based
[1] = system: WI-38 cell line (human fetal lung fibroblast cell line); experiment: Cytotoxicity assay (WST assay), WI-38 control cell line; settings: Example 5; cisplatin 4.2 μM; 24 hours; PBS set to 100%
Method: In addition, as a control, WI-38 cell line (human fetal lung fibroblast cell line) was also used.
(§1) All of these cell lines were purchased from ATCC (American Type Culture Collection). […]
First, after being recovered by thawing the frozen cancer cell lines, the recovered cancer cell lines were seeded in a 96-well plate by 100 μL to be 5×10^3 cells/well (the number of seeds was appropriately adjusted by cell species). […] After culturing was carried out for 24 hours or 48 hours from the addition of the complex-containing composition (after cells are planted and cultivated for 48 hours or 72 hours), a WST-1 reagent (manufactured by Roche Inc.) was added to each well by 10 μL and incubated for 1, 1.5, and 2 hours to form a formazan dye, and then the absorbance (Abs at 450 nm) of the formazan dye was measured (WST assay). […] Based on the results of the obtained absorbance, the cell survival rate of the well added with the human antibody κ type light chain not bound to metal ions or the well added with the PBS was set to 100%, and the cell survival rate of each well was determined, so as to evaluate the cytotoxicity of the added complex-containing composition.

[2] = system: SNU-1 cell line (human metastatic gastric cancer cell line); experiment: Cytotoxicity assay (WST assay), SNU-1 cell line
Method: (§2) The cytotoxicity of each complex-containing composition to cancer cells was tested using cancer cell lines. As the cancer cell lines, A549 cell line (human alveolar epithelial cancer cell line), ES-2 cell line (human ovarian cancer cell line), MOLT-4 cell line (human acute lymphoblastic leukemia T cell line), BxPC-3 cell line (human pancreatic adenocarcinoma cell line), SNU-1 cell line (human metastatic gastric cancer cell line), and PANC-1 cell line (human pancreatic cancer cell line) were used.
(§3) All of these cell lines were purchased from ATCC (American Type Culture Collection). Here, the A549 cell line was cultured using a 10% FCS (fetal calf serum)-containing F-12K culture medium by a general method, the ES-2 cell line was cultured using a 10% FCS-containing McCoy's 5A culture medium by a general method, each of the MOLT-4 cell line, SNU-1 cell line, and BxPC-3 cell line was cultured using a 10% FCS-containing RPMI-1640 culture medium by a general method, the PANC-1 cell line was cultured using a 10% FCS-containing DMEM culture medium by a general method, and the WI-38 cell line was cultured using a 10% FCS-containing EMEM culture medium by a general method.
First, after being recovered by thawing the frozen cancer cell lines, the recovered cancer cell lines were seeded in a 96-well plate by 100 μL to be 5×10^3 cells/well (the number of seeds was appropriately adjusted by cell species). After culturing was carried out at 37° C. for 24 hours, a culture medium to be added to the 96-well plate was removed by decantation, and then each complex-containing composition prepared at a concentration of about 1 mg/mL was added to each well by 100 μL. After culturing was carried out for 24 hours or 48 hours from the addition of the complex-containing composition (after cells are planted and cultivated for 48 hours or 72 hours), a WST-1 reagent (manufactured by Roche Inc.) was added to each well by 10 μL and incubated for 1, 1.5, and 2 hours to form a formazan dye, and then the absorbance (Abs at 450 nm) of the formazan dye was measured (WST assay). As a control, a human antibody κ type light chain not bound to metal ions or PBS was added instead of the complex-containing composition and cultured for 24 hours or 48 hours, and then WST assay was carried out. Based on the results of the obtained absorbance, the cell survival rate of the well added with the human antibody κ type light chain not bound to metal ions or the well added with the PBS was set to 100%, and the cell survival rate of each well was determined, so as to evaluate the cytotoxicity of the added complex-containing composition.

[3] = system: A549 cell line (human alveolar epithelial cancer cell line); experiment: Cytotoxicity assay (WST assay), A549 cell line; settings: Example 5; C51 incubated with metal ions 4 μM or cisplatin 4 μM; 24 hours; PBS set to 100%
Method: as §2, §1
First, after being recovered by thawing the frozen cancer cell lines, the recovered cancer cell lines were seeded in a 96-well plate by 100 μL to be 5×10^3 cells/well (the number of seeds was appropriately adjusted by cell species). […] After culturing was carried out for 24 hours or 48 hours from the addition of the complex-containing composition (after cells are planted and cultivated for 48 hours or 72 hours), a WST-1 reagent (manufactured by Roche Inc.) was added to each well by 10 μL and incubated for 1, 1.5, and 2 hours to form a formazan dye, and then the absorbance (Abs at 450 nm) of the formazan dye was measured (WST assay). […]

[4] = system: PANC-1 cell line (human pancreatic cancer cell line); experiment: Cytotoxicity assay (WST assay), PANC-1 cell line; settings: Example 2, Fr. 3B set to 100%
Method: as §2, §3
First, after being recovered by thawing the frozen cancer cell lines, the recovered cancer cell lines were seeded in a 96-well plate by 100 μL to be 5×10^3 cells/well (the number of seeds was appropriately adjusted by cell species). […] After culturing was carried out for 24 hours or 48 hours from the addition of the complex-containing composition (after cells are planted and cultivated for 48 hours or 72 hours), a WST-1 reagent (manufactured by Roche Inc.) was added to each well by 10 μL and incubated for 1, 1.5, and 2 hours to form a formazan dye, and then the absorbance (Abs at 450 nm) of the formazan dye was measured (WST assay). As a control, a human antibody κ type light chain not bound to metal ions or PBS was added instead of the complex-containing composition and cultured for 24 hours or 48 hours, and then WST assay was carried out. Based on the results of the obtained absorbance, the cell survival rate of the well added with the human antibody κ type light chain not bound to metal ions or the well added with the PBS was set to 100%, and the cell survival rate of each well was determined, so as to evaluate the cytotoxicity of the added complex-containing composition.

[5] = Example 2, #7_wt fractions 4 μM (100 μg/mL) or cisplatin 4 μM, Fr. 3B set to 100%
[6] = Example 2, cisplatin 33 μM, Fr. 3B set to 100%
[7] = #7_wt fractions 4 μM (100 μg/mL) or cisplatin 4 μM

N.N.[Cl][Pt][Cl] [Cisplatin, cisplatin]
Relative cell survival rate [1]: 40%
Relative cell survival rate, SNU-1 cell line, 24 h [2, 5]: 85.0%
Relative cell survival rate, SNU-1 cell line, 48 h [2, 5]: 32.5%
Relative cell survival rate, SNU-1 cell line, 24 h [2, 6]: 32.0%
Relative cell survival rate, SNU-1 cell line, 48 h [2, 6]: 5.8%
Relative cell survival rate, SNU-1 cell line, 24 h ([2]; Example 3, cisplatin 4 μM, Fr. 3B (#7_C219A) set to 100%): 89.5%
Relative cell survival rate [3]: about 60%
Relative cell survival rate, PANC-1 cell line, 24 h [4, 7]: 109.3%
Relative cell survival rate, PANC-1 cell line, 48 h [4, 7]: 82.1%
Relative cell survival rate, PANC-1 cell line, 24 h ([4]; cisplatin 33 μM): 60.3%
Relative cell survival rate, PANC-1 cell line, 48 h ([4]; cisplatin 33 μM): 9.6%
